Measurements published in the NIST ThermoML archive (doi:10.1016/j.jct.2012.11.010).

Details: Liquid; for viscosity: 101.33 kPa, Falling or rolling sphere viscometry; for mass density: Vibrating tube method

CCCC[N+]1(C)CCCC1.FC(F)(F)C(F)(F)[P-](F)(F)(F)(C(F)(F)C(F)(F)F)C(F)(F)C(F)(F)F
Details | viscosity [mPa·s]
293.15 K | 333.79
303.15 K | 179.86
313.15 K | 106
323.15 K | 68.08
333.15 K | 45.37
343.15 K | 31.9
353.15 K | 23.42
363.15 K | 17.58
373.15 K | 13.71

Details | mass density [kg/m3]
293.17 K, 5000 kPa | 1606.7
293.17 K, 10000 kPa | 1610.2
293.17 K, 15000 kPa | 1614.1
293.17 K, 20000 kPa | 1618
293.17 K, 25000 kPa | 1621.7
293.18 K, 2500 kPa | 1604.9
293.19 K, 100 kPa | 1603.7
293.19 K, 500 kPa | 1604
293.19 K, 1000 kPa | 1603.9
303.18 K, 100 kPa | 1592.8
303.19 K, 1000 kPa | 1593.1
303.2 K, 500 kPa | 1593.1
303.25 K, 10000 kPa | 1599.5
303.25 K, 20000 kPa | 1607.6
303.25 K, 25000 kPa | 1611.4
303.26 K, 2500 kPa | 1593.9
303.26 K, 5000 kPa | 1595.8
303.26 K, 15000 kPa | 1603.6
313.19 K, 10000 kPa | 1589.1
313.2 K, 100 kPa | 1581.9
313.2 K, 500 kPa | 1582.3
313.2 K, 1000 kPa | 1582.3
313.2 K, 5000 kPa | 1585.3
313.2 K, 20000 kPa | 1597.4
313.21 K, 2500 kPa | 1583.3
313.21 K, 15000 kPa | 1593.3
313.21 K, 25000 kPa | 1601.4
323.14 K, 100 kPa | 1571
323.14 K, 500 kPa | 1571.4
323.14 K, 2500 kPa | 1572.5
323.14 K, 10000 kPa | 1578.5
323.14 K, 15000 kPa | 1582.9
323.14 K, 20000 kPa | 1587.2
323.14 K, 25000 kPa | 1591.3
323.15 K, 1000 kPa | 1571.5
323.15 K, 5000 kPa | 1574.6
333.17 K, 100 kPa | 1560.4
333.17 K, 500 kPa | 1560.8
333.17 K, 1000 kPa | 1560.9
333.17 K, 5000 kPa | 1564.2
333.18 K, 2500 kPa | 1562
333.18 K, 10000 kPa | 1568.2
333.18 K, 15000 kPa | 1572.7
333.18 K, 20000 kPa | 1577.2
333.18 K, 25000 kPa | 1581.4
343.16 K, 100 kPa | 1549.9
343.17 K, 500 kPa | 1550.4
343.18 K, 1000 kPa | 1550.5
343.19 K, 2500 kPa | 1551.6
343.2 K, 5000 kPa | 1553.9
343.2 K, 10000 kPa | 1558.1
343.2 K, 15000 kPa | 1562.8
343.2 K, 20000 kPa | 1567.4
343.21 K, 25000 kPa | 1571.7
353.17 K, 100 kPa | 1539.5
353.17 K, 500 kPa | 1540.1
353.17 K, 5000 kPa | 1543.8
353.18 K, 1000 kPa | 1540.3
353.18 K, 2500 kPa | 1541.4
353.18 K, 15000 kPa | 1553
353.19 K, 10000 kPa | 1548.2
353.19 K, 20000 kPa | 1557.7
353.19 K, 25000 kPa | 1562.2

CCCCCCCCCCCCCC[P+](CCCCCC)(CCCCCC)CCCCCC.FC(F)(F)C(F)(F)[P-](F)(F)(F)(C(F)(F)C(F)(F)F)C(F)(F)C(F)(F)F
Details | viscosity [mPa·s]
293.15 K | 470.83
303.15 K | 259.01
313.15 K | 155.29
323.15 K | 94.33
333.15 K | 65
343.15 K | 42.67
353.15 K | 30.35
363.15 K | 22.81
373.15 K | 17.53

Details | mass density [kg/m3]
293.2 K, 100 kPa | 1185.7
293.21 K, 500 kPa | 1185.9
293.22 K, 1000 kPa | 1185.9
293.22 K, 2500 kPa | 1186.7
293.22 K, 5000 kPa | 1188.3
293.22 K, 10000 kPa | 1191.3
293.22 K, 25000 kPa | 1201.2
293.23 K, 15000 kPa | 1194.7
293.23 K, 20000 kPa | 1198
303.19 K, 100 kPa | 1177.4
303.19 K, 500 kPa | 1177.7
303.19 K, 1000 kPa | 1177.7
303.21 K, 2500 kPa | 1178.5
303.22 K, 5000 kPa | 1180.1
303.22 K, 10000 kPa | 1183.3
303.23 K, 15000 kPa | 1186.8
303.23 K, 20000 kPa | 1190.2
303.25 K, 25000 kPa | 1193.5
313.15 K, 100 kPa | 1169.1
313.17 K, 500 kPa | 1169.4
313.17 K, 1000 kPa | 1169.4
313.17 K, 2500 kPa | 1170.3
313.17 K, 5000 kPa | 1172
313.17 K, 10000 kPa | 1175.4
313.17 K, 15000 kPa | 1179.1
313.17 K, 20000 kPa | 1182.6
313.17 K, 25000 kPa | 1186
323.14 K, 15000 kPa | 1171.1
323.15 K, 500 kPa | 1161
323.15 K, 1000 kPa | 1161.1
323.15 K, 5000 kPa | 1163.8
323.15 K, 10000 kPa | 1167.3
323.15 K, 20000 kPa | 1174.7
323.16 K, 100 kPa | 1160.6
323.16 K, 2500 kPa | 1162
323.16 K, 25000 kPa | 1178.3
333.11 K, 100 kPa | 1152.6
333.12 K, 500 kPa | 1152.9
333.12 K, 1000 kPa | 1153
333.12 K, 2500 kPa | 1154
333.12 K, 10000 kPa | 1159.5
333.13 K, 5000 kPa | 1156.8
333.13 K, 15000 kPa | 1163.4
333.13 K, 25000 kPa | 1171
333.14 K, 20000 kPa | 1167.2
343.07 K, 500 kPa | 1145
343.07 K, 1000 kPa | 1145.1
343.08 K, 2500 kPa | 1146.1
343.08 K, 10000 kPa | 1151.9
343.08 K, 15000 kPa | 1156
343.09 K, 5000 kPa | 1148.1
343.09 K, 25000 kPa | 1163.7
343.1 K, 20000 kPa | 1159.9
343.13 K, 100 kPa | 1144.5
353.2 K, 100 kPa | 1136.5
353.22 K, 500 kPa | 1137
353.22 K, 2500 kPa | 1138.2
353.22 K, 5000 kPa | 1140.2
353.23 K, 1000 kPa | 1137.1
353.23 K, 10000 kPa | 1144.2
353.23 K, 15000 kPa | 1148.4
353.25 K, 20000 kPa | 1152.5
353.25 K, 25000 kPa | 1156.4
